System: 855422-203-R-J1-PDC complex spheroid viability
Experiment: Anticancer human tumor 855422-203-R-J1-PDC patient-derived bladder carcinoma cell line growth inhibition [POLQ]
Conditions: for IC50: curve of first compound; for viability, T/C: stronger effect = lower value
Procedure, shortened: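 Complex spheroid viability model combining PDC tumour cells with endothelial (HUVEC) and MSC stromal cells. Novobiocin, ART-558 or RP6685 were tested singly and in combination with standard and investigational anticancer drugs. Each was titrated in half-log steps from near clinical Cmax, or from 10 microM where Cmax was unknown.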

[1] = second compound 0.0316 µM, first compound 0.0316 µM
[2] = second compound 0.0316 µM, first compound 0.1 µM
[3] = second compound 0.0316 µM, first compound 0.316 µM
[4] = second compound 0.0316 µM, first compound 1 µM
[5] = second compound 0.0316 µM, first compound 3.16 µM
[6] = second compound 0.0316 µM, first compound 10 µM
[7] = second compound 0.1 µM, first compound 0.0316 µM
[8] = second compound 0.1 µM, first compound 0.1 µM
[9] = second compound 0.1 µM, first compound 0.316 µM
[10] = second compound 0.1 µM, first compound 1 µM
[11] = second compound 0.1 µM, first compound 3.16 µM
[12] = second compound 0.1 µM, first compound 10 µM
[13] = second compound 0.316 µM, first compound 0.0316 µM
[14] = second compound 0.316 µM, first compound 0.1 µM
[15] = second compound 0.316 µM, first compound 0.316 µM
[16] = second compound 0.316 µM, first compound 1 µM
[17] = second compound 0.316 µM, first compound 3.16 µM
[18] = second compound 0.316 µM, first compound 10 µM
[19] = second compound 1 µM, first compound 0.0316 µM
[20] = second compound 1 µM, first compound 0.1 µM
[21] = second compound 1 µM, first compound 0.316 µM
[22] = second compound 1 µM, first compound 1 µM
[23] = second compound 1 µM, first compound 3.16 µM
[24] = second compound 1 µM, first compound 10 µM
[25] = second compound 3.16 µM, first compound 0.0316 µM
[26] = second compound 3.16 µM, first compound 0.1 µM
[27] = second compound 3.16 µM, first compound 0.316 µM
[28] = second compound 3.16 µM, first compound 1 µM
[29] = second compound 3.16 µM, first compound 3.16 µM
[30] = second compound 3.16 µM, first compound 10 µM
[31] = second compound 10 µM, first compound 0.0316 µM
[32] = second compound 10 µM, first compound 0.1 µM
[33] = second compound 10 µM, first compound 0.316 µM
[34] = second compound 10 µM, first compound 1 µM
[35] = second compound 10 µM, first compound 3.16 µM
[36] = second compound 10 µM, first compound 10 µM
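Note: spheroids exposed to compounds for seven days before readout.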

Structure (SMILES): CCc1cc2c(N3CCc4c(cc(Cn5ccnc5)cc4-c4cn(C)nc4C(F)(F)F)C3=O)cc(C)nc2c(OC)n1 + COC1C(OC(N)=O)C(O)C(Oc2ccc3c(O)c(NC(=O)c4ccc(O)c(CC=C(C)C)c4)c(=O)oc3c2C)OC1(C)C
- IC50 (second compound 0.0316 µM): 2.8 µM
- IC50 (second compound 0.1 µM): 1.45 µM
- IC50 (second compound 0.316 µM): 1.64 µM
- IC50 (second compound 1 µM): 1.75 µM
- IC50 (second compound 3.16 µM): 2.12 µM
- IC50 (second compound 10 µM): 1.22 µM
- viability, T/C [1]: 89.1%
- viability, T/C [2]: 78.2%
- viability, T/C [3]: 75.6%
- viability, T/C [4]: 71.5%
- viability, T/C [5]: 45.7%
- viability, T/C [6]: 25.3%
- viability, T/C [7]: 105%
- viability, T/C [8]: 80%
- viability, T/C [9]: 65.4%
- viability, T/C [10]: 58.9%
- viability, T/C [11]: 43.9%
- viability, T/C [12]: 24.5%
- viability, T/C [13]: 106%
- viability, T/C [14]: 90.2%
- viability, T/C [15]: 67.8%
- viability, T/C [16]: 63%
- viability, T/C [17]: 39.6%
- viability, T/C [18]: 23.5%
- viability, T/C [19]: 114%
- viability, T/C [20]: 79.6%
- viability, T/C [21]: 76.3%
- viability, T/C [22]: 63.3%
- viability, T/C [23]: 41.1%
- viability, T/C [24]: 25.9%
- viability, T/C [25]: 91.2%
- viability, T/C [26]: 86%
- viability, T/C [27]: 75.4%
- viability, T/C [28]: 62%
- viability, T/C [29]: 43.7%
- viability, T/C [30]: 25.4%
- viability, T/C [31]: 83.2%
- viability, T/C [32]: 73.8%
- viability, T/C [33]: 62.7%
- viability, T/C [34]: 56.6%
- viability, T/C [35]: 35.8%
- viability, T/C [36]: 22.1%

Structure (SMILES): CCc1cc2c(N3CCc4c(cc(Cn5ccnc5)cc4-c4cn(C)nc4C(F)(F)F)C3=O)ccnc2c(OC)n1 + COC1C(OC(N)=O)C(O)C(Oc2ccc3c(O)c(NC(=O)c4ccc(O)c(CC=C(C)C)c4)c(=O)oc3c2C)OC1(C)C
- IC50 (second compound 0.0316 µM): 4.02 µM
- IC50 (second compound 0.1 µM): 3.41 µM
- IC50 (second compound 0.316 µM): 2.73 µM
- IC50 (second compound 1 µM): 2.6 µM
- IC50 (second compound 3.16 µM): 2.05 µM
- IC50 (second compound 10 µM): 2.22 µM
- viability, T/C [1]: 83.6%
- viability, T/C [2]: 95%
- viability, T/C [3]: 83.4%
- viability, T/C [4]: 69.5%
- viability, T/C [5]: 55.9%
- viability, T/C [6]: 34.5%
- viability, T/C [7]: 88.2%
- viability, T/C [8]: 82.8%
- viability, T/C [9]: 84.1%
- viability, T/C [10]: 66.8%
- viability, T/C [11]: 52.6%
- viability, T/C [12]: 28.5%
- viability, T/C [13]: 93.3%
- viability, T/C [14]: 80.3%
- viability, T/C [15]: 93.2%
- viability, T/C [16]: 75.1%
- viability, T/C [17]: 46.7%
- viability, T/C [18]: 31%
- viability, T/C [19]: 87.9%
- viability, T/C [20]: 76.9%
- viability, T/C [21]: 71.2%
- viability, T/C [22]: 65.1%
- viability, T/C [23]: 46.6%
- viability, T/C [24]: 28.6%
- viability, T/C [25]: 89.5%
- viability, T/C [26]: 90%
- viability, T/C [27]: 68.9%
- viability, T/C [28]: 67.3%
- viability, T/C [29]: 40%
- viability, T/C [30]: 28.1%
- viability, T/C [31]: 99.3%
- viability, T/C [32]: 76%
- viability, T/C [33]: 80.3%
- viability, T/C [34]: 72.9%
- viability, T/C [35]: 39.3%
- viability, T/C [36]: 31.9%

Structure (SMILES): COc1cc2cc(C(=O)CCC(=O)O)sc2cc1OC + COC1C(OC(N)=O)C(O)C(Oc2ccc3c(O)c(NC(=O)c4ccc(O)c(CC=C(C)C)c4)c(=O)oc3c2C)OC1(C)C
- IC50 (second compound 0.0316 µM): > 10 µM
- IC50 (second compound 0.1 µM): > 10 µM
- IC50 (second compound 0.316 µM): > 10 µM
- IC50 (second compound 1 µM): > 10 µM
- IC50 (second compound 3.16 µM): > 10 µM
- IC50 (second compound 10 µM): > 10 µM
- viability, T/C [1]: 105%
- viability, T/C [2]: 97.2%
- viability, T/C [3]: 115%
- viability, T/C [4]: 106%
- viability, T/C [5]: 99.8%
- viability, T/C [6]: 101%
- viability, T/C [7]: 83.2%
- viability, T/C [8]: 111%
- viability, T/C [9]: 105%
- viability, T/C [10]: 98.8%
- viability, T/C [11]: 111%
- viability, T/C [12]: 88.2%
- viability, T/C [13]: 115%
- viability, T/C [14]: 101%
- viability, T/C [15]: 110%
- viability, T/C [16]: 106%
- viability, T/C [17]: 113%
- viability, T/C [18]: 101%
- viability, T/C [19]: 104%
- viability, T/C [20]: 105%
- viability, T/C [21]: 90.5%
- viability, T/C [22]: 109%
- viability, T/C [23]: 99.5%
- viability, T/C [24]: 94.6%
- viability, T/C [25]: 98%
- viability, T/C [26]: 102%
- viability, T/C [27]: 110%
- viability, T/C [28]: 111%
- viability, T/C [29]: 114%
- viability, T/C [30]: 86.4%
- viability, T/C [31]: 104%
- viability, T/C [32]: 107%
- viability, T/C [33]: 105%
- viability, T/C [34]: 104%
- viability, T/C [35]: 95.7%
- viability, T/C [36]: 82.8%

Structure (SMILES): COc1ccc([C@@H](O)c2cc(-c3ncnc4cc(N5CCOCC5)ccc34)c(F)cc2Cl)nn1 + COC1C(OC(N)=O)C(O)C(Oc2ccc3c(O)c(NC(=O)c4ccc(O)c(CC=C(C)C)c4)c(=O)oc3c2C)OC1(C)C
- IC50 (second compound 0.0316 µM): 6.47 µM
- IC50 (second compound 0.1 µM): 6.5 µM
- IC50 (second compound 0.316 µM): 6.58 µM
- IC50 (second compound 1 µM): 6.17 µM
- IC50 (second compound 3.16 µM): 6.5 µM
- IC50 (second compound 10 µM): 6.48 µM
- viability, T/C [1]: 107%
- viability, T/C [2]: 102%
- viability, T/C [3]: 95.7%
- viability, T/C [4]: 81.1%
- viability, T/C [5]: 71.9%
- viability, T/C [6]: 37.7%
- viability, T/C [7]: 90.4%
- viability, T/C [8]: 113%
- viability, T/C [9]: 101%
- viability, T/C [10]: 89.8%
- viability, T/C [11]: 68.6%
- viability, T/C [12]: 39.1%
- viability, T/C [13]: 119%
- viability, T/C [14]: 121%
- viability, T/C [15]: 101%
- viability, T/C [16]: 86.9%
- viability, T/C [17]: 64.5%
- viability, T/C [18]: 41.9%
- viability, T/C [19]: 110%
- viability, T/C [20]: 108%
- viability, T/C [21]: 93.8%
- viability, T/C [22]: 98.7%
- viability, T/C [23]: 68.7%
- viability, T/C [24]: 35.3%
- viability, T/C [25]: 109%
- viability, T/C [26]: 107%
- viability, T/C [27]: 106%
- viability, T/C [28]: 84.8%
- viability, T/C [29]: 73.2%
- viability, T/C [30]: 37.2%
- viability, T/C [31]: 121%
- viability, T/C [32]: 110%
- viability, T/C [33]: 110%
- viability, T/C [34]: 91.2%
- viability, T/C [35]: 71.7%
- viability, T/C [36]: 36.9%

Source: PubChem BioAssay AID1963838 (Molecular Pharmacology Branch, DTP, NCI, 2024)
